In test [1] the target is T1, human JAK2 (Homo sapiens, UniProt O60674).
T1 construct: JAK2 (a.a. 828-1132); His tag (N); made in house; host or cells: insect cells (baculovirus)
In words: In Vitro JAK Kinase Assay (HTRF, phosphorylation of a biotinylated peptide), JAK2. In kind it is biochemical. Particulars: Table 4; assay of Example A. The procedure: (§1) The catalytic activity of JAK1, JAK2 or JAK3 was assayed by measuring the phosphorylation of a biotinylated peptide. The phosphorylated peptide was detected by homogenous time resolved fluorescence (HTRF). […] Reactions were carried out at room temperature for 1 hour and then stopped with 20 μL 45 mM EDTA, 300 nM SA-APC, 6 nM Eu-Py20 in assay buffer (Perkin Elmer, Boston, Mass.). Binding to the Europium labeled antibody took place for 40 minutes and HTRF signal was measured on a Fusion plate reader (Perkin Elmer, Boston, Mass.).
On the technique in general: Time-resolved FRET reads energy transfer from a long-lived donor to a nearby acceptor.

For test [2], the target named is T2, human JAK1 (Homo sapiens, UniProt P23458).
T2 construct: human JAK1 (a.a. 837-1142); His tag (N); made in house; host or cells: insect cells (baculovirus)
The test can be described thus: In Vitro JAK Kinase Assay (HTRF, phosphorylation of a biotinylated peptide), JAK1. In kind it is biochemical. Particulars: Table 4; catalytic domain a.a. 837-1142, assay of Example A. As for the experimental part:
as §1

Structures can show the parent of a compound that is named as a salt.

T1 sequence (O60674 828-1132): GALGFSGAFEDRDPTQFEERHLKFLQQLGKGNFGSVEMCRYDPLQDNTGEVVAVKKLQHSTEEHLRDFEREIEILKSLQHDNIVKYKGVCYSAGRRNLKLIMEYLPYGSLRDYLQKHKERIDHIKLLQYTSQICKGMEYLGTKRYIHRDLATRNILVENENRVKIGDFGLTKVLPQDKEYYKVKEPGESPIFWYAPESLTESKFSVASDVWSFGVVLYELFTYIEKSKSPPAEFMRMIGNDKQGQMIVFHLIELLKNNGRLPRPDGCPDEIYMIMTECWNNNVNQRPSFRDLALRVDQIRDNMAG
T2 sequence (P23458 849-1154): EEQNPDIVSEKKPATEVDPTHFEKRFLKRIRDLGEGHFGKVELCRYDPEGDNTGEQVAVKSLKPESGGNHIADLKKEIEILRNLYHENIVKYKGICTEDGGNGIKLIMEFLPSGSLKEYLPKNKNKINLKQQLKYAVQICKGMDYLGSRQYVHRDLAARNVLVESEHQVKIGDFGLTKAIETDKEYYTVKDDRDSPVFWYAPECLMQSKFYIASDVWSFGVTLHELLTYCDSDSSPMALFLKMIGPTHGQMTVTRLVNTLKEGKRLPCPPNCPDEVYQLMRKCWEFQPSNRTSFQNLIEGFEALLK

Broadly, the IC50 is the concentration that inhibits the measured activity by half. As to `C[C@@H](CO)NCc1cc(O[C@H]2CC[C@@H](N3CC(CC#N)(n4cc(-c5ncnc6[nH]ccc56)cn4)C3)CC2)nc(C(F)(F)F)n1` [Example 16, {1-(cis-4-{[6-({[(1S)-2-hydroxy-1-methylethyl]amino}methyl)-2-(trifluoromethyl)pyrimidin-4-yl]oxy}cyclohexyl)-3-[4-(7H-pyrrolo[2,3-d]pyrimidin-4-yl)-1H-pyrazol-1-yl]azetidin-3-yl}acetonitrile Ex 1 tris(trifluoroacetate) (salt)], in test [1], the “JAK2/JAK1 IC50 ratio” value is given as “≧10”. Further, in test [2], the IC50 is under 10 nM.

For `C[C@H](CO)NCc1cc(O[C@H]2CC[C@@H](N3CC(CC#N)(n4cc(-c5ncnc6[nH]ccc56)cn4)C3)CC2)nc(C(F)(F)F)n1` [Example 17, {1-(cis-4-{[6-({[(1R)-2-hydroxy-1-methylethyl]amino}methyl)-2-(trifluoromethyl)pyrimidin-4-yl]oxy}cyclohexyl)-3-[4-(7H-pyrrolo[2,3-d]pyrimidin-4-yl)-1H-pyrazol-1-yl]azetidin-3-yl}acetonitrile tris(trifluoroacetate) (salt)], the “JAK2/JAK1 IC50 ratio” value in test [1] was “≧10”. Further, the IC50 in test [2] was under 10 nM.

For the molecule `C[C@@H](O)CNCc1cc(O[C@H]2CC[C@@H](N3CC(CC#N)(n4cc(-c5ncnc6[nH]ccc56)cn4)C3)CC2)nc(C(F)(F)F)n1` [Example 18, {1-(cis-4-{[6-({[(2S)-2-hydroxypropyl]amino}methyl)-2-(trifluoromethyl)pyrimidin-4-yl]oxy}cyclohexyl)-3-[4-(7H-pyrrolo[2,3-d]pyrimidin-4-yl)-1H-pyrazol-1-yl]azetidin-3-yl}acetonitrile tris(trifluoroacetate) (salt)], the “JAK2/JAK1 IC50 ratio” value in test [1] is given as “≧10”. For the same molecule, the IC50 in test [2] was under 10 nM.

Take `C[C@H](O)CNCc1cc(O[C@H]2CC[C@@H](N3CC(CC#N)(n4cc(-c5ncnc6[nH]ccc56)cn4)C3)CC2)nc(C(F)(F)F)n1` [Example 19, {1-(cis-4-{[6-({[(2R)-2-hydroxypropyl]amino}methyl)-2-(trifluoromethyl)pyrimidin-4-yl]oxy}cyclohexyl)-3-[4-(7H-pyrrolo[2,3-d]pyrimidin-4-yl)-1H-pyrazol-1-yl]azetidin-3-yl}acetonitrile tris(trifluoroacetate) (salt)]: the “JAK2/JAK1 IC50 ratio” value in test [1] was “≧10”. Further, the IC50 in test [2] is under 10 nM.

As for `CC(C)(O)CNCc1cc(O[C@H]2CC[C@@H](N3CC(CC#N)(n4cc(-c5ncnc6[nH]ccc56)cn4)C3)CC2)nc(C(F)(F)F)n1` [Example 20, {1-(cis-4-{[6-{[(2-hydroxy-2-methylpropyl)amino]methyl}-2-(trifluoromethyl)pyrimidin-4-yl]oxy}cyclohexyl)-3-[4-(7H-pyrrolo[2,3-d]pyrimidin-4-yl)-1H-pyrazol-1-yl]azetidin-3-yl}acetonitrile tris(trifluoroacetate) (salt)], the “JAK2/JAK1 IC50 ratio” value in test [1] is on record as “≧10”. The molecule further came in with an IC50 in test [2] of under 10 nM.

Consider `N#CCC1(n2cc(-c3ncnc4[nH]ccc34)cn2)CN([C@H]2CC[C@@H](Oc3cc(CNCCCO)nc(C(F)(F)F)n3)CC2)C1` [Example 21, {1-(cis-4-{[6-{[(3-hydroxypropyl)amino]methyl}-2-(trifluoromethyl)pyrimidin-4-yl]oxy}cyclohexyl)-3-[4-(7H-pyrrolo[2,3-d]pyrimidin-4-yl)-1H-pyrazol-1-yl]azetidin-3-yl}acetonitrile tris(trifluoroacetate) (salt)], for which the “JAK2/JAK1 IC50 ratio” value in test [1] is reported as “≧10”. This molecule yielded an IC50 in test [2] of under 10 nM.

For `COCCNCc1cc(O[C@H]2CC[C@@H](N3CC(CC#N)(n4cc(-c5ncnc6[nH]ccc56)cn4)C3)CC2)nc(C(F)(F)F)n1.O=C(O)C(F)(F)F.O=C(O)C(F)(F)F.O=C(O)C(F)(F)F` [Example 22, {1-(cis-4-{[6-{[(2-methoxyethyl)amino]methyl}-2-(trifluoromethyl)pyrimidin-4-yl]oxy}cyclohexyl)-3-[4-(7H-pyrrolo[2,3-d]pyrimidin-4-yl)-1H-pyrazol-1-yl]azetidin-3-yl}acetonitrile tris(trifluoroacetate)], in test [1], the “JAK2/JAK1 IC50 ratio” value is listed as “≧10”. This molecule also displayed an IC50 in test [2] of under 10 nM.

The values are drawn from patent US9359358B2, “Cyclohexyl azetidine derivatives as JAK inhibitors” (Incyte Holdings Corporation, priority 2011, dated 2016).
